A short description of this series: RP, Thermo Scientific Acclaim RSLC 120 C18, 100 × 2.1 mm, 2.2 µm, 30 °C, 0.2 mL/min, estimated dead time 1.1 min; A: 90% water + 10% methanol + 0.01% formic acid + 5 mM ammonium formate, pH 3.61; B: methanol + 0.01% formic acid + 5 mM ammonium formate, pH 3.61; gradient (min/%B) 0/1 1/1 2/39 13/99.9 15/99.9 15.1/1 20.1/1. The note with it: stereoisomer not certain.
For `CC(=O)OCC(=O)C12OC3(CCCC3)OC1CC1C3CCC4=CC(=O)C=CC4(C)C3(F)C(O)CC12C` (stereo unspecified) [Amcinonide], the LC retention time was 11.2 min.

In the case of `CCNc1nc(NC(C)C)nc(SC)n1` [Ametryn], the LC retention time was 9.16 min.

For the compound `CCN(CC)C(C)C(=O)c1ccccc1` (stereo unspecified) [Amfepramone], the LC retention time is 4.11 min.

Take `CNCC(O)c1cccc(NS(C)(=O)=O)c1` (stereo unspecified) [Amidephrine]: the LC retention time is 2.54 min.

For `CCCCCCCCCCCCCC(=O)NCCC[N+](C)(C)CCCS(=O)(=O)O` [Amidosulfobetaine-14], the LC retention time is 15 min.

With `COc1cc(OC)nc(NC(=O)NS(=O)(=O)N(C)S(C)(=O)=O)n1` [Amidosulfuron], the LC retention time was 6.77 min.

Consider `NC(N)=NC(=O)c1nc(Cl)c(N)nc1N` [Amiloride], for which the LC retention time is 3.68 min.

In the case of `CNC(=O)Oc1ccc(N(C)C)c(C)c1` [Aminocarb  (Metacil)], the LC retention time is 5.15 min.

Turning to `CCC1(c2ccc(N)cc2)CCC(=O)NC1=O` (stereo unspecified) [Aminoglutethimide], the LC retention time was 4.99 min.

Turning to `Cc1c(N(C)C)c(=O)n(-c2ccccc2)n1C` [Aminophenazone. Amidopyrin], the LC retention time was 5.21 min.

As for `CCCCc1oc2ccccc2c1C(=O)c1cc(I)c(OCCN(CC)CC)c(I)c1` [Amiodarone], the LC retention time was 12.1 min.

Turning to `CC[N+]1([O-])CCCC1CNC(=O)c1cc(S(=O)(=O)CC)c(N)cc1OC` (stereo unspecified) [Amisulpride-N-Oxide], the LC retention time was 4.33 min.

Take `CCN1CCCC1CNC(=O)c1cc(S(=O)(=O)CC)c(N)cc1OC` (stereo unspecified) [Amisulpride]: the LC retention time was 3.88 min.

With `Cc1ccc(N=CN(C)C=Nc2ccc(C)cc2C)c(C)c1` [Amitraz], the LC retention time was 13.3 min.

`CN(C)CCC=C1c2ccccc2CCc2ccccc21` [Amitriptyline]: the LC retention time is 8.23 min.

In the case of `CCOC(=O)C1=C(COCCN)NC(C)=C(C(=O)OC)C1c1ccccc1Cl` (stereo unspecified) [Amlodipine], the LC retention time was 8.36 min.

`CCC(C)(C)c1ccc(CC(C)CN2CC(C)OC(C)C2)cc1` (stereo unspecified) [Amorolfine]: the LC retention time was 12.9 min.

For `Clc1ccc2c(c1)C(N1CCNCC1)=Nc1ccccc1O2` [Amoxapine], the LC retention time is 7.64 min.

In the case of `CC(N)Cc1ccccc1F` (stereo unspecified) [Amphetamine (2-F-)], the LC retention time is 4.24 min.

`CC(N)Cc1cccc(F)c1` (stereo unspecified) [Amphetamine (3-F-)]: the LC retention time is 4.39 min.

Regarding `CC(N)Cc1ccc(F)cc1` (stereo unspecified) [Amphetamine (4-F-)], the LC retention time is 4.39 min.

For the compound `CNC(C)Cc1ccccc1F` (stereo unspecified) [Amphetamine-2-F-Methyl (2-F-methamphetamine)], the LC retention time is 4.33 min.

On to `Cc1ccccc1CC(C)N` (stereo unspecified) [Amphetamine-2-methyl (ortetamine)], for which the LC retention time was 5.17 min.

For `CNC(C)Cc1cccc(F)c1` (stereo unspecified) [Amphetamine-3-F-Methyl (3-F-methamphetamine)], the LC retention time was 4.39 min.

Turning to `Cc1cccc(CC(C)N)c1` (stereo unspecified) [Amphetamine-3-methyl], the LC retention time was 5.17 min.

As for `CNC(C)Cc1ccc(F)cc1` (stereo unspecified) [Amphetamine-4-F-Methyl (4-F-methamphetamine)], the LC retention time is 4.43 min.

Regarding `CNC(C)Cc1ccccc1` (stereo unspecified) [Amphetamine-Methyl (methamphetamine)], the LC retention time was 4.21 min.

As for `CCNC(C)Cc1ccccc1` (stereo unspecified) [Amphetamine-N-Ethyl], the LC retention time is 4.4 min.

With `CCCNC(C)Cc1ccccc1` (stereo unspecified) [Amphetamine-N-Propyl], the LC retention time is 4.83 min.

Take `CC(N)Cc1ccc(O)cc1` (stereo unspecified) [Amphetamine-P-hydroxy]: the LC retention time was 2.98 min.

Take `CC1(C)SC2C(NC(=O)C(N)c3ccccc3)C(=O)N2C1C(=O)O` (stereo unspecified) [Ampicillin]: the LC retention time is 4.21 min.

For `Nc1cc(-c2ccncc2)c[nH]c1=O` [Amrinone], the LC retention time was 2.88 min.

Turning to `COc1ccc(C(O)(c2cncnc2)C2CC2)cc1` (stereo unspecified) [Ancymidol], the LC retention time is 7.15 min.

For the compound `Clc1nc(Cl)nc(Nc2ccccc2Cl)n1` [Anilazine (Dyrene)], the LC retention time is 9.74 min.

As to `COP(=S)(OC)SCC(=O)N(c1ccc(Cl)cc1)C(C)C` [Anilofos], the LC retention time is 10.8 min.

On to `c1ccc(CN(CC2=NCCN2)c2ccccc2)cc1` [Antazoline], for which the LC retention time is 6.41 min.

`Cc1c(N)c(=O)n(-c2ccccc2)n1C` [Antipyrine-4-Amino (4-AAP)]: the LC retention time was 4.69 min.

For the compound `CC(=O)Nc1c(C)n(C)n(-c2ccccc2)c1=O` [Antipyrine- 4-Acetamido], the LC retention time was 3.94 min.

As to `Cc1c(NC=O)c(=O)n(-c2ccccc2)n1C` [Antipyrine- 4-Formylamino], the LC retention time is 3.96 min.

Regarding `CN1CCc2cccc3c2C1Cc1ccc(O)c(O)c1-3` (stereo unspecified) [Apomorphine], the LC retention time was 4.28 min.

`NCC(O)c1ccccc1` (stereo unspecified) [Apophedrin  (Phenylethanolamine)]: the LC retention time was 2.84 min.

As to `Nc1cc(Cl)c(NC2=NCCN2)c(Cl)c1` [Apraclonidin], the LC retention time is 3.09 min.

For the compound `CCN(CC)CCCN(c1ccccc1)C1Cc2ccccc2C1` [Aprindine], the LC retention time was 8.85 min.

Take `C=CCC(C(=O)NC(N)=O)C(C)C` (stereo unspecified) [Apronalide]: the LC retention time is 6.94 min.

On to `CC(COc1ccc(C(C)(C)C)cc1)OS(=O)OCCCl` (stereo unspecified) [Aramite (total)], for which the LC retention time is 12.2 min.

As for `COC(=O)C1=CCCN(C)C1` [Arecoline], the LC retention time is 1.74 min.

With `O=C1CCc2ccc(OCCCCN3CCN(c4cccc(Cl)c4Cl)CC3)cc2N1` [Aripiprazole], the LC retention time was 8.63 min.

As for `Nc1ncnc2c1ncn2Cc1c(F)cccc1Cl` [Arprinocid], the LC retention time was 6.7 min.

Regarding `CN1CC2c3ccccc3Oc3ccc(Cl)cc3C2C1` (stereo unspecified) [Asenapine], the LC retention time is 7.39 min.

Regarding `COC(=O)C(Cc1ccccc1)NC(=O)C(N)CC(=O)O` (stereo unspecified) [Aspartame], the LC retention time was 5.01 min.

Regarding `CCCOP(=S)(OCCC)OP(=S)(OCCC)OCCC` [Aspon], the LC retention time was 12.9 min.

Turning to `COc1ccc(CCN2CCC(Nc3nc4ccccc4n3Cc3ccc(F)cc3)CC2)cc1` [Astemizole], the LC retention time is 8.03 min.

On to `COC(=O)NS(=O)(=O)c1ccc(N)cc1` [Asulam], for which the LC retention time is 3.41 min.

Consider `COC(=O)NC(C(=O)NC(Cc1ccccc1)C(O)CN(Cc1ccc(-c2ccccn2)cc1)NC(=O)C(NC(=O)OC)C(C)(C)C)C(C)(C)C` (stereo unspecified) [Atazanavir], for which the LC retention time is 10.9 min.

In the case of `CC(C)NCC(O)COc1ccc(CC(=O)O)cc1` (stereo unspecified) [Atenolol acid (Metoprolol acid)], the LC retention time was 3.93 min.

Consider `NCC(O)COc1ccc(CC(N)=O)cc1` (stereo unspecified) [Atenolol-desisopropyl], for which the LC retention time was 2 min.

In the case of `CC(C)NCC(O)COc1ccc(CC(N)=O)cc1` (stereo unspecified) [Atenolol], the LC retention time is 3.09 min.

`CNCCC(Oc1ccccc1C)c1ccccc1` (stereo unspecified) [Atomoxetine]: the LC retention time is 7.63 min.

As for `CC(C)C(=O)C1(C(=O)Nc2ccccc2)OC1(C(=O)c1ccc(F)cc1)c1ccccc1` (stereo unspecified) [Atorvastatin IMP D (epoxide)], the LC retention time is 10.3 min.

Consider `CC(C)c1c(C(=O)Nc2ccccc2)c(-c2ccccc2)c(-c2ccc(F)cc2)n1CCC(O)CC(O)CC(=O)O` (stereo unspecified) [Atorvastatin], for which the LC retention time is 9.96 min.

With `CCNc1nc(NC(C)C)nc(OC)n1` [Atraton], the LC retention time is 7.81 min.

Take `CCNc1nc(NC(C)C)[nH]c(=O)n1` [Atrazine-2-hydroxy]: the LC retention time is 5.03 min.

Take `CC(C)Nc1nc(N)[nH]c(=O)n1` [Atrazine-desethyl-2-hydroxy (=Prometon-Hydroxy-Desisopropyl)]: the LC retention time was 3.16 min.

Consider `Nc1nc(N)nc(Cl)n1` [Atrazine-desethyl-desisopropyl], for which the LC retention time was 3.03 min.

Regarding `CC(C)Nc1nc(N)nc(Cl)n1` [Atrazine-desethyl], the LC retention time is 5.73 min.

As to `CN1C2CCC1CC(OC(=O)C(CO)c1ccccc1)C2` (stereo unspecified) [Atropine], the LC retention time is 4.36 min.

As for `COc1ccc(CNc2nc(N3CCCC3CO)ncc2C(=O)NCc2ncccn2)cc1Cl` (stereo unspecified) [Avanafil], the LC retention time is 8.76 min.

`CCC(C)C1OC2(C=CC1C)CC1CC(CC=C(C)C(OC3CC(OC)C(OC4CC(OC)C(O)C(C)O4)C(C)O3)C(C)C=CC=C3COC4C(O)C(C)=CC(C(=O)O1)C34O)O2` (stereo unspecified) [AvermectinB1a (Abamectin)]: the LC retention time was 13.6 min.

With `COC1CC(OC2C(C)OC(OC3C(C)=CCC4CC(CC5(C=CC(C)C(C(C)C)O5)O4)OC(=O)C4C=C(C)C(O)C5OCC(=CC=CC3C)C45O)CC2OC)OC(C)C1O` (stereo unspecified) [AvermectinB1b (Abamectin)], the LC retention time is 13.4 min.

For the compound `OC(c1ccccc1)(c1ccccc1)C1CCNCC1` [Azacyclonol], the LC retention time was 6.19 min.

In the case of `CC=C(C)C(=O)OC1CC(OC(C)=O)C2(C(=O)OC)COC3C2C12COC(O)(C(=O)OC)C2C(C)(C12OC1(C)C1CC2OC2OC=CC21O)C3O` (stereo unspecified) [Azadirachtin], the LC retention time is 7.56 min.

As for `CCCC1C(=O)N2C(N(C)C)=Nc3ccc(C)cc3N2C1=O` (stereo unspecified) [Azapropazone], the LC retention time was 6.54 min.

Take `CN1CCC(=C2c3ccccc3CCc3cccnc32)CC1` [Azatadine]: the LC retention time is 5.99 min.

For `CN1CCCC(n2nc(Cc3ccc(Cl)cc3)c3ccccc3c2=O)CC1` (stereo unspecified) [Azelastine], the LC retention time is 7.59 min.

With `COc1cc(OC)nc(NC(=O)NS(=O)(=O)c2c(-c3nnn(C)n3)cnn2C)n1` [Azimsulfuron], the LC retention time is 7.62 min.

`CCOP(=S)(OCC)SCn1nnc2ccccc2c1=O` [Azinphos-ethyl]: the LC retention time is 10.2 min.

Source of the values: the RepoRT retention time repository (doi:10.1021/acs.analchem.2c02893).
